# Source: ChEMBL document CHEMBL1201862, “PubChem BioAssay data set” (2004)
# Activity calls are given as the source filed them.
# Columns and labels:
# [1] = biological target: Heat shock protein HSP 90-alpha (Homo sapiens, UniProt P07900); type: functional, organism-based
# Caspase-3 = biological target: T1, Caspase-3 (Homo sapiens, UniProt P42574); type: functional;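 also: Dose-response selectivity test against caspase-3 for candidate inhibitors of sentrin-specific proteases (SENPs)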
# T1 sequence (P42574 whole entry): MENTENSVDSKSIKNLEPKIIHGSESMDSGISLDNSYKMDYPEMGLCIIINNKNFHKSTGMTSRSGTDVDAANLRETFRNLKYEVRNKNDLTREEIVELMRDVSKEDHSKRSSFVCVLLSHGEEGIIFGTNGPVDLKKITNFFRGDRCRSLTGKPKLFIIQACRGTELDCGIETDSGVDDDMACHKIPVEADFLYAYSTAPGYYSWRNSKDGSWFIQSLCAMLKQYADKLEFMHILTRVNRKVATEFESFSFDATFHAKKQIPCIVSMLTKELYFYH
# [2] = biological target: T2, Sentrin-specific protease 7 (Homo sapiens, UniProt Q9BQF6); type: functional;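 also: Luminescence-based dose-response confirmation of ultra-high-throughput screening hits, measuring inhibition of SENP7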
# T2 sequence (Q9BQF6 whole entry): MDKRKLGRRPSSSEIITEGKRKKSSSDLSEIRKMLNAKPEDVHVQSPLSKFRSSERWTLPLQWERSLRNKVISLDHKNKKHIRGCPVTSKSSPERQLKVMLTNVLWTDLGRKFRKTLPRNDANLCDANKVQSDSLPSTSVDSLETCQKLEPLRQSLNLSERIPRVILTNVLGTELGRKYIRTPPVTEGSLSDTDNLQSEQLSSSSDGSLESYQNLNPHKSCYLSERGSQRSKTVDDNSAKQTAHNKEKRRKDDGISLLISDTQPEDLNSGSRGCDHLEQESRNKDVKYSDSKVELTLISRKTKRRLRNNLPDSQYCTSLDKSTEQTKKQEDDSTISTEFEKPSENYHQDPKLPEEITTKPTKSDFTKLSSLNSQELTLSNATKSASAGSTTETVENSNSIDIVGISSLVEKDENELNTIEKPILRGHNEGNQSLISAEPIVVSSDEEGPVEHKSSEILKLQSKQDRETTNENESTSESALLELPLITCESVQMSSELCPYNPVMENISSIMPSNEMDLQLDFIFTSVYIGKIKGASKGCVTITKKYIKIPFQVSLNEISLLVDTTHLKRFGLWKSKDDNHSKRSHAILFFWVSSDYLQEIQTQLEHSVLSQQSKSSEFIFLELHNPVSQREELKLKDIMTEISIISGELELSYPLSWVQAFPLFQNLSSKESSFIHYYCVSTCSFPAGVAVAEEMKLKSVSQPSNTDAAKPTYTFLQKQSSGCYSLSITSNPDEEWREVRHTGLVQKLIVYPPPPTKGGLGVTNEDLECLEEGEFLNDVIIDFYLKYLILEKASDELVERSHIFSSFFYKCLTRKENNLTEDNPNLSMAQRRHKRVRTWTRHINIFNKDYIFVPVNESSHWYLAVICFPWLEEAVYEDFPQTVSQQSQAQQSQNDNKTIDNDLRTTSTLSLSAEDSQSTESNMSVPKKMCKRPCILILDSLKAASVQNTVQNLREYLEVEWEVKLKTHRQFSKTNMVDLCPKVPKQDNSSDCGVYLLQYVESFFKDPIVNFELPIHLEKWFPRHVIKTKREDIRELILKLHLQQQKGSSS
# [3] = biological target: T3, Sentrin-specific protease 6 (Homo sapiens, UniProt Q9GZR1); type: functional;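 also: Luminescence-based dose-response confirmatory assay of SENP6 inhibition, following up an ultra-high-throughput screen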
# T3 sequence (Q9GZR1 whole entry): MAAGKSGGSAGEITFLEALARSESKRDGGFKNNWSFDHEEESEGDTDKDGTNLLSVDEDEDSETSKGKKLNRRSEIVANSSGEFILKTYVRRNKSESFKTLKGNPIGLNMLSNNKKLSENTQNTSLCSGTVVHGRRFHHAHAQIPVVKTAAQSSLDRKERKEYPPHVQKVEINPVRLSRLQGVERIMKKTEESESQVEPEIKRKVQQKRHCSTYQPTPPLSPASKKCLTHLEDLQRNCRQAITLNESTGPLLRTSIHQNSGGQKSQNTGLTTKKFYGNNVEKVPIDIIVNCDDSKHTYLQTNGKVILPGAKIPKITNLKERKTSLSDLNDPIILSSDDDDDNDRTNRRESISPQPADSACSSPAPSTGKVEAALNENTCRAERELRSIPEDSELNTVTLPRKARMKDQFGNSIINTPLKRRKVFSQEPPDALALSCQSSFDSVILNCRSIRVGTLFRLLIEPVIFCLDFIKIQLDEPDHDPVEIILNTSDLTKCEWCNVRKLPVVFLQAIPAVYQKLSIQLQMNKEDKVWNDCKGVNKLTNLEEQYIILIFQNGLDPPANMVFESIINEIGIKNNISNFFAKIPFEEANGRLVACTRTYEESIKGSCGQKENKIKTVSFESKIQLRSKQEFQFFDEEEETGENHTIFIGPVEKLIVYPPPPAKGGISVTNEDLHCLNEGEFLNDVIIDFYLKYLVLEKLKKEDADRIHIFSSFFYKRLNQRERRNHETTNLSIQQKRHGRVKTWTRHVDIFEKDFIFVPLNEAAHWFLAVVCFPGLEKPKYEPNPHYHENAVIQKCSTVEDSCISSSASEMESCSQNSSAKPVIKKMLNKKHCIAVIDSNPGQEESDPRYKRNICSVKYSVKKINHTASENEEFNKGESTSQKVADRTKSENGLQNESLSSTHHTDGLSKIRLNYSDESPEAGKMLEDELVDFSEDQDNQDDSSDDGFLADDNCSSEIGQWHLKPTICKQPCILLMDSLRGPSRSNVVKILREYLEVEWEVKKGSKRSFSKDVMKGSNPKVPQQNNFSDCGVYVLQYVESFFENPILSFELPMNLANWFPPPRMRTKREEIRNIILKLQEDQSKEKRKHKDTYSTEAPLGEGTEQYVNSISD
# [4] = biological target: T4, Sentrin-specific protease 8 (Homo sapiens, UniProt Q96LD8); type: functional;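 also: luminescence read-out of SENP8 inhibition, dose-response confirmation following an ultra-high-throughput screen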
# T4 sequence (Q96LD8 whole entry): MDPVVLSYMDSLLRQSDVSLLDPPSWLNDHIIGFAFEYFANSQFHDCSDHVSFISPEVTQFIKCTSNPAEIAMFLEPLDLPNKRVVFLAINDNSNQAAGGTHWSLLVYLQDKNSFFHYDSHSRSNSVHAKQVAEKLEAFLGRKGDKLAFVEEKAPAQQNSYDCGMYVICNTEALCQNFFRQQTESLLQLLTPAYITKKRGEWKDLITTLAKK
# Nonstructural protein 1 = Nonstructural protein 1 (Influenza A virus, UniProt Q194T2); type: functional, Influenza A virus (A/California/07/2009(H1N1))
# Nonstructural protein 1, sequence (Q194T2 whole entry): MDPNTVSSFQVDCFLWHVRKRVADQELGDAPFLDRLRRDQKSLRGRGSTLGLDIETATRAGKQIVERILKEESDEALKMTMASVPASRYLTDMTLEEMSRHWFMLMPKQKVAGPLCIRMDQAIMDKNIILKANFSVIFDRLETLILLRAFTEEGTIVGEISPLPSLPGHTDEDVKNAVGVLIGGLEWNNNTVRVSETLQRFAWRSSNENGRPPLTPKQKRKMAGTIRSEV
# Vero = assay: cells; type: functional; conditions: Chlorocebus sabaeus
# Estrogen receptor = biological target: T5, Estrogen receptor (Homo sapiens, UniProt P03372);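 also: potency for inhibiting coactivator peptide recruitment to the receptor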
# T5 sequence (P03372 whole entry): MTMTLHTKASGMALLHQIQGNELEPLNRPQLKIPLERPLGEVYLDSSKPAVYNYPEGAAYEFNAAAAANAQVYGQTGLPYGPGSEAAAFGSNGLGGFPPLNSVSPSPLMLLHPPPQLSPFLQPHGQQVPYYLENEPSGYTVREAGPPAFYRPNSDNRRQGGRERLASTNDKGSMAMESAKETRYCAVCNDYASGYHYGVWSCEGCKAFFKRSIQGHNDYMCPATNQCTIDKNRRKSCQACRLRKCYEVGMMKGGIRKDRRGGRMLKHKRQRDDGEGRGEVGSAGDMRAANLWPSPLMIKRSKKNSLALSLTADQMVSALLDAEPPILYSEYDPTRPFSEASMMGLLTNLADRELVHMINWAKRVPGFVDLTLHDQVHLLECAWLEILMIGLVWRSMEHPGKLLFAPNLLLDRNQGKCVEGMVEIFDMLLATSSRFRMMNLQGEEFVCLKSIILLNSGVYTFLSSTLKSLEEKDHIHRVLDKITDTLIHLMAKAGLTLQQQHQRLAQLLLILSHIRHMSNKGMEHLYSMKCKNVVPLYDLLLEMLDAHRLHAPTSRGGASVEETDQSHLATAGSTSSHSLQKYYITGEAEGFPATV
# [5] = inhibitors of intracellular T. cruzi replication, confirmation, NIH3T3 host cells, beta-gal luminescence (AID 2044); type: functional, cell-based;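 also: intracellular parasites grown in NIH/3T3 mouse fibroblasts as host cells; luminescent beta-galactosidase reporter signal from transgenic T. cruzi replicating inside host cells; inhibitors lower the luminescence signal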
# [6] = cytotoxicity toward NIH3T3 fibroblasts, dose response, counter-screen, cell-based, ATP luminescence, mouse fibroblasts (AID 2010); type: functional;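 also: cells exposed to compound for about 90 hours before reading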
# [7] = biological target: T6, RNA-binding protein pos-1 (Caenorhabditis elegans, UniProt G5EF15); assay: inhibitors of POS-1/mex-3 RNA binding, dose response, biochemical, fluorescence polarization (AID 1964);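 also: purified POS-1 fused to maltose binding protein made in E. coli; potency of compounds blocking POS-1 binding to fluorescent RNA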
# T6 sequence (G5EF15 whole entry): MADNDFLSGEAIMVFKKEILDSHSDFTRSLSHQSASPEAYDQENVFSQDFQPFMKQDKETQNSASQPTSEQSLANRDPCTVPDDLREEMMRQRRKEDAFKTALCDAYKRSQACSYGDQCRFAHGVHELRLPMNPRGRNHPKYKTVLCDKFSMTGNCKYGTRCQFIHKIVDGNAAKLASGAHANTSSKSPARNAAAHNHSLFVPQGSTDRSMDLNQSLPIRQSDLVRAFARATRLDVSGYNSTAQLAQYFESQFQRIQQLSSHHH
# [8] = biological target: T7, Zinc finger protein mex-5 (Caenorhabditis elegans, UniProt Q9XUB2); assay: MEX-5/TCR-2 RNA interaction inhibitors, dose response, biochemical, C. elegans, fluorescence polarization (AID 1960)
# T7 sequence (Q9XUB2 whole entry): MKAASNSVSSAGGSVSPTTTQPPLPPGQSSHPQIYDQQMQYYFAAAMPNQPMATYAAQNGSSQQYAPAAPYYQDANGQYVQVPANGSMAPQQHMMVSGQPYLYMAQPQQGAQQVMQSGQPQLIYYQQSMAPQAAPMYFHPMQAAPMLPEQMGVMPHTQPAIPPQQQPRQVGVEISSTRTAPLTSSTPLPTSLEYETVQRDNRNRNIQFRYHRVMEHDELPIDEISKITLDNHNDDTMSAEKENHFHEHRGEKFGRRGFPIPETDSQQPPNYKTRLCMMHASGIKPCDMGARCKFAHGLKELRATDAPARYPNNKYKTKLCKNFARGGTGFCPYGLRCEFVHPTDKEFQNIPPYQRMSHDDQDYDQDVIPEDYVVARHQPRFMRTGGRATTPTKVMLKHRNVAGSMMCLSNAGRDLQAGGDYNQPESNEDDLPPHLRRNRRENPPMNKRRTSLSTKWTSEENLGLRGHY
# [9] = biological target: FAD-linked sulfhydryl oxidase ALR (Homo sapiens, UniProt P55789); assay: inhibitors of human ALR sulfhydryl oxidase, dose response, biochemical, H2O2 detection, luminescence, cherry-pick (AID 493248)
# FAD-linked sulfhydryl oxidase ALR, sequence (P55789 whole entry): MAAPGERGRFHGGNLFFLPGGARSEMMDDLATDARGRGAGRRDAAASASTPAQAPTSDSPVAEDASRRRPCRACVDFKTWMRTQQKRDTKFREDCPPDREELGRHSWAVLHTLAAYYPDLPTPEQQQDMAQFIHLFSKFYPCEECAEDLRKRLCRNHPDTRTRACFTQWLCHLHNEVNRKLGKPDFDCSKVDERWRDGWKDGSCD
# [10] = Luminescence Cell-Based Dose Confirmation HTS to Identify Activators of 5'UTR Stem-Loop Driven Alpha-Synuclein mRNA Translation in H4 Neuroglioblastoma Cells. [Related pubchem assays: 1829 (Project Summary), 1814 (Primary HTS)]; type: functional
# [11] = Luminescence Cell-Based Dose Response HTS to Identify Activators of Luciferase Translation or Activity in H4 […] Cells. [Related pubchem assays: 1829 (Project Summary), 1814 (Primary HTS)]; type: functional
# H4 = assay: Luminescence Cell-Based Dose Response HTS to Identify Activators of 5'UTR Stem-Loop Driven Prion Protein mRNA Translation in H4 Neuroglioblastoma Cells. [Related pubchem assays: 1829 (Project Summary), 1814 (Primary HTS)]; type: functional; conditions: Homo sapiens
# HEK293 [12] = assay: NOD1 signaling inhibitors, primary screen, cell-based, luminescence, uHTS (AID 1578); type: functional; conditions: Homo sapiens
# HEK293 [13] = assay: cells; type: functional, cell-based; conditions: Homo sapiens
# HEK293 [14] = assay: cells; type: functional, cell-based; conditions: Homo sapiens; remark: listed apart in the source
# HEK293 [15] = assay: NOD2 signaling inhibitors in MDP-stimulated cells, cell-based, uHTS, luminescence (AID 2001); type: functional; conditions: Homo sapiens
# [16] = Luminescence Cell-Based Dose Retest to Confirm Inhibitors of Cancer Stem Cells. [Related pubchem assays (depositor defined):AID2717, AID2721]; type: functional; conditions: Homo sapiens
smiles,measurement,setting,value
Cc1cccc(N2C(=O)C=CC2=O)c1,AC50,[1],1.63 µM (active)
Cc1cccc(C(=O)n2c(=S)nc3cc(C)ccn32)c1,IC50,Caspase-3,87.3 µM (active)
same,IC50,[2],11 µM (active)
same,IC50,[3],86.4 µM (active)
same,IC50,[4],> 100 µM (inactive)
CC(C)OC(=O)c1cc2c(ccn2C)n1CC(=O)N(Cc1ccccc1)c1ccc(F)cc1,IC50,Nonstructural protein 1,> 100 µM (active)
COc1ccccc1NC(=O)CSc1n[nH]c(-c2ccccn2)n1,IC50,Nonstructural protein 1,6.84 µM (active)
COc1ccc(-c2nc3ccccc3c(=O)[nH]2)cc1,IC50,Caspase-3,6.83 µM (active)
same,IC50,[2],6.89 µM (active)
same,IC50,[3],17.3 µM (active)
same,IC50,[4],> 100 µM (inactive)
COc1ccc([C@@]2(C(C)C)ON(c3ccccc3C(F)(F)F)C2=O)cc1,CC50,Vero,> 25 µM (active)
O=C(Cc1cccs1)Nc1nnc(COc2ccccc2)s1,IC50,Estrogen receptor,37.3 µM (not active)
CC1CCN(c2c([N+](=O)[O-])nn(-c3ccc4c(c3)OCCO4)[n+]2[O-])CC1,EC50,[5],0.431 µM (active)
same,EC50,[6],> 60 µM (not active)
same,IC50,Nonstructural protein 1,58.9 µM (active)
OCCOCCn1c(C2CCCN2c2nc(-c3ccc(F)cc3)cs2)nc2cc(C(F)(F)F)ccc21 (stereo not given),AC50,[1],7.57 µM (active)
O=S(=O)(/C=C/c1ccccc1)NC1CCCCCC1,AC50,[1],10.5 µM (active)
COc1ccc(N(C(=O)c2ccncc2)S(=O)(=O)c2ccc(Cl)cc2)cc1,AC50,[1],0.354 µM (active)
C[C@@H]1CC[C@H](Cc2ccc(-n3cccc3)cc2)N1C(=O)OC(C)(C)C,CC50,Vero,> 25 µM (active)
Cc1ccc(C[S+]([O-])Cc2ccc(C(=O)N3CCN(c4ccccc4)CC3)o2)cc1 (stereo not given),EC50,[7],> 300 µM (not active)
same,EC50,[8],> 300 µM (not active)
same,EC50,[5],7.61 µM (active)
same,EC50,[6],33.2 µM (active)
same,AC50,[9],5.92 µM (active)
S=C(NNc1ccc2ccccc2c1)NC1CCCCC1,EC50,[10],42.1 µM (active)
same,EC50,[11],30.4 µM (active)
same,EC50,H4,9.85 µM (active)
same,IC50,Nonstructural protein 1,> 100 µM (active)
O=C(CSc1nc2cc(Cl)ccc2s1)NC(=O)NCc1ccco1,IC50,Estrogen receptor,> 50 µM (not active)
CC1(C)C=C2[C@H]3CC[C@@H]4[C@@]5(C)CCC(=O)C(C)(C)[C@@H]5CC[C@@]4(C)[C@]3(C)CC[C@@]2(C(=O)O)CC1 [MORONIC ACID],EC50,HEK293 [12],2.27 µM (active)
same,IC50,HEK293 [13],10.9 µM (active)
same,IC50,HEK293 [14],15.7 µM (active)
same,IC50,HEK293 [15],8.08 µM (active)
same,AC50,[16],3.35 µM (active)
